Patent publication EP0490667B1, “HIV protease inhibitors” (priority 1990, dated 1992)

Each molecule was assayed against T1, chemically synthesized HIV protease (Human immunodeficiency virus type 1 group M subtype B, UniProt P12497, C555A/C583A). Conditions: inhibitor 5 µM final concentration (Tables 1-2).
T1 construct: The HIV protease was chemically synthesized; made in house; host or cells: chemical synthesis (no expression host)
Assay type: biochemical
From the text: The HPLC condition was as followes. Column: VYDAC 218 TP 54, C18 • Solvent A: 0.1% trifluoroacetic acid aqueous solution • Solvent B: acetonitrile • Gradient: B was increased in 1.0%/min from 100% of A,

Row | Molecule | Residual Activity (%)
1 | 3-Phenylpropionyl-Msa-(2S,3S)-AHPBA-Pro-Ile-Val-NH2 [Example 62] | 3.2
2 | Benzyloxycarbonyl-Val-(2R,3S)-AHPBA-Phe-NH-CH2-CH(CH3)2 [Example JJ] | 84.9
3 | Benzyloxycarbonyl-Val-(2R,3S)-AHPBA-Phe-Val-NH-CH2-CH(CH3)2 [Example HH] | 83.4
4 | PhCH2-O-CO-Asn-(2S,3S)-AHPBA-Pro-NH-CH2-C6H11 [Example 49] | 51.9

Same assay, conditions: inhibitor 1 mM (Tables 1-2)

Row | Molecule | Residual Activity (%)
5 | Furancarbonyl-Asn-(2S,3S)-AHPBA-Pro-Ile-Val-NH2 [Example 65] | 9.3
6 | Thiophenecarbonyl-Asn-(2S,3S)-AHPBA-Pro-Ile-Val-NH2 [Example 67] | 4.9

Same assay, conditions: inhibitor 1mM as headed in Tables 3-6

Row | Molecule | Residual Activity (%)
7 | 1-Naphthoxyacetyl-Msa-(2S,3S)-AHPBA-Thz-NH-chex-ol [Example 158] | <10
8 | Benzyloxycarbonyl-Asn-(2S,3S)-AHPBA-(D)-Pip-NH-tBu [Example 79] | 84.0
9 | Benzyloxycarbonyl-Asn-(2S,3S)-AHPBA-(L)-Pip-NH-tBu [Example 78] | 11.7
10 | Benzyloxycarbonyl-Asn-(2S,3S)-AHPBA-Hyp(Bzl)-NH-tBu [Example 95] | 34.6
11 | Benzyloxycarbonyl-Asn-(2S,3S)-AHPBA-Inc-NH-tBu [Example 96] | 95.2
12 | Benzyloxycarbonyl-Asn-(2S,3S)-AHPBA-Pro-Aib-NH2 [Example 93] | <10
13 | Benzyloxycarbonyl-Asn-(2S,3S)-AHPBA-Pro-NH-CH2-C(CH3)3 [Example 83] | 12.4
14 | Benzyloxycarbonyl-Asn-(2S,3S)-AHPBA-Pro-NH-CH(C2H5)2 [Example 89] | <10
15 | Benzyloxycarbonyl-Asn-(2S,3S)-AHPBA-Pro-NH-cyclopropyl [Example 88] | <10
16 | Benzyloxycarbonyl-Asn-(2S,3S)-AHPBA-Pro-NH-tAmyl [Example 87] | 5.8
17 | Benzyloxycarbonyl-Asn-(2S,3S)-AHPBA-Pro-O-tBu [Example 86] | 12.6
18 | Benzyloxycarbonyl-Asn-(2S,3S)-AHPBA-Thz-NH-tBu [Example 82] | 1.3

Same assay, conditions: inhibitor 5mM as headed in Tables 3-6

Row | Molecule | Residual Activity (%)
19 | 1-Isoquinolinecarbonyl-Asn-(2S,3S)-AHPBA-Pro-NH-tBu.AcOH [Example 140] | 72.8
20 | 1-Naphthoxyacetyl-Asn-(2S,3S)-AHPBA-Thz-NH-cyclopentyl [Example 128] | 10.5
21 | 1-Naphthoxyacetyl-Msa-(2S,3S)-AHPBA-Oic-NH-tBu [Example 146] | 97.5
22 | 1-Naphthoxyacetyl-Msa-(2S,3S)-AHPBA-Thz-Pip-O-CH3 [Example 159] | 90.8
23 | 1-Naphthoxyacetyl-Mta-(2S,3S)-AHPBA-Thz-NH-tBu [Example 162] | 2.9
24 | 2-Quinolinecarbonyl-Asn-(2S,3S)-AHPBA-Dtc-NH-tBu [Example 118] | 1.8
25 | 2-Quinolinecarbonyl-Asn-(2S,3S)-AHPBA-Pro-NH-tBu [Example 138] | 27.3
26 | CS(=O)(=O)C[C@H](NC(=O)COc1cccc2ccccc12)C(=O)N[C@@H](Cc1ccccc1)[C@H](O)C(=O)N1CSC[C@H]1C(=O)N[C@H](C(N)=O)c1ccccc1 [Example 157, 1-Naphthoxyacetyl-Msa-(2S,3S)-AHPBA-Thz-Phg-NH2] | 93.9
27 | CC(C)(C)NC(=O)[C@@H]1CSCN1C(=O)[C@@H](O)[C@H](Cc1ccccc1)NC(=O)[C@H](CS(C)(=O)=O)NC(=O)COc1cccc(C(=O)N2CCOCC2)c1 [Example 168, m-(Morph-CO)-Ph-O-CH2-CO-Msa-(2S,3S)-AHPBA-Thz-NH-tBu] | 44.5
28 | CS(=O)(=O)C[C@H](NC(=O)COc1cccc2ccccc12)C(=O)N[C@@H](Cc1ccccc1)[C@H](O)C(=O)N1CSC[C@H]1C(=O)NCC(N)=O [Example 172, 1-Naphthoxyacetyl-Msa-(2S,3S)-AHPBA-Thz-Gly-NH2] | 77.9
29 | CS(=O)(=O)C[C@H](NC(=O)COc1cccc2ccccc12)C(=O)N[C@@H](Cc1ccccc1)[C@H](O)C(=O)N1CSC[C@H]1C(=O)NCCCC(N)=O [Example 173, 1-Naphthoxyacetyl-Msa-(2S,3S)-AHPBA-Thz-GABA-NH2] | 65.0
30 | CC(CNC(=O)[C@@H]1CSCN1C(=O)[C@@H](O)[C@H](Cc1ccccc1)NC(=O)[C@H](CS(C)(=O)=O)NC(=O)COc1cccc2ccccc12)C(N)=O (stereo partly drawn) [Example 174, 1-Naphthoxyacetyl-Msa-(2S,3S)-AHPBA-Thz-BAIB-NH2] | 46.6
31 | CC(CC(N)=O)NC(=O)[C@@H]1CSCN1C(=O)[C@@H](O)[C@H](Cc1ccccc1)NC(=O)[C@H](CS(C)(=O)=O)NC(=O)COc1cccc2ccccc12 (stereo partly drawn) [Example 175, 1-Naphthoxyacetyl-Msa-(2S,3S)-AHPBA-Thz-BANB-NH2] | 33.0
32 | Benzyloxycarbonyl-Asn-(2S,3S)-AHPBA decahydroisoquinoline | 8.6
33 | Benzyloxycarbonyl-Asn-(2S,3S)-AHPBA-Ccp-NH-tBu [Example 187] | 99.0
34 | Benzyloxycarbonyl-Asn-(2S,3S)-AHPBA-Cpp-NH-tBu [Example 185] | 96.0
35 | Benzyloxycarbonyl-Asn-(2S,3S)-AHPBA-Dmp-NH2 [Example 188] | 98.1
36 | Benzyloxycarbonyl-Asn-(2S,3S)-AHPBA-Dmp-NH-tBu [Example 182] | 26.8
37 | Benzyloxycarbonyl-Asn-(2S,3S)-AHPBA-Dtc-NH2 [Example 177] | 74.2
38 | Benzyloxycarbonyl-Asn-(2S,3S)-AHPBA-Dtc-NH-tBu [Example 104] | 3.8
39 | Benzyloxycarbonyl-Asn-(2S,3S)-AHPBA-Pdp-NH-tBu [Example 164] | 49.8
40 | Benzyloxycarbonyl-Asn-(2S,3S)-AHPBA-Php-NH-tBu [Example 184] | 16.8
41 | Benzyloxycarbonyl-Asn-(2S,3S)-AHPBA-Pro-NH-C(CH3)2-CH2-OH [Example 99] | 62.2
42 | Benzyloxycarbonyl-Asn-(2S,3S)-AHPBA-Pro-NH-sBu [Example 176] | 82.6
43 | Benzyloxycarbonyl-Asn-(2S,3S)-AHPBA-Tcp-NH-tBu [Example 186] | 99.5
44 | Bis(4-chlorophenyl)methyloxyacetyl-Asn-(2S,3S)-AHPBA-Pro-NH-tBu [Example 94] | 37.0
45 | PhCH2-O-CO-Asn-(2S,3S)-AHPBA-(D)-Tic-NH-tBu [Example 103] | 91.4
46 | PhCH2-O-CO-Asn-(2S,3S)-ASPBA-(L)-Tic-NH-tBu [Example 102] | 89.2
47 | m-(Piper-CO-)Ph-O-CH2-CO-Msa-(2S,3S)-AHPBA-Thz-NH-tBu [Example 167] | 25.4
48 | m-Isopropyloxyphenoxyacetyl-Msa-(2S,3S)-AHPBA-Dtc-NH-tBu [Example 166] | 2.0
